From patent US20100256217A1, “ANTIVIRAL INHIBITION OF CASEIN KINASE II” (The Trustees of the University of Pennsylvania, priority 2006, published 2010)
Entries after “also recorded” stand apart in the source; their conditions may differ.

Columns and labels:
[1] = system: CK2-mediated phosphorylation of WNV C in Vero cells; test: In vivo 32P labeling and immunoprecipitation of WNV C from transfected cells under DRB; type: cell-based, African green monkey; conditions: cells transfected with pcWNV C-His; DRB 100, 500 and 1000 μM; anti-His immunoprecipitation
Description: In vivo ^32P-Orthophosphate labeling and WNV C immunoprecipitation. In order to check whether Cp is phosphorylated in vivo also, Capsid-transfected cells were pulse-chased with […] and their lysates were analyzed for the detection of phosphorylated capsid proteins by Immunoprecipitation. HeLa cells were grown in DMEM medium supplemented with 10% FBS until they were subconfluent. The cells were transfected with WNV Cp constructs and DOTAP/DNA containing media were replaced after about 6-hours with media with/without […]. DBS was added to a final concentration of 0.1, 0.5 and 1.0 mM. The Control cells were treated with DMSO alone. Phospholabeling and immunoprecipitation of WNV CP were performed as described previously. […] WNV CP was precipitated with anti-His monoclonal antibody (Scil Diagnostics, Martinsried, Germany). […] The immunoprecipitated capsid proteins were eluted from the protein G-agarose by boiling them for 5 min and analyzed by SDS-PAGE, followed by autoradiography.
Subsequent to the identification and characterization of CK2-mediated phosphorylation of the rC in vitro, we wanted to study this phenomenon in vivo. […] The lysates from the matching controls that were not exposed to radioactivity, were analyzed separately for capsid expression. […]

capsid-containing VLPs = test: ELISA of capsid from culture fluid (secretion of capsid-containing VLPs); type: cell-based; conditions: DRB added to culture medium; anti-C ELISA
Excerpt: Quantification of the protein C in ELISA from the supernatants of transfected cells. The ability of unprocessed and truncated capsid proteins to participate in the budding was assed by ELISA from culture fluid of transfected cells. In 6 cm plates, the cells were transfected with full-length capsid (123 aa) or truncated capsid (105 aa) or C(S36A) plasmids or in combination with WNV M and E-expressing constructs. Forty eight hours post-transfection, the supernatants were collected and analyzed for viral budding. One hundred microliters of supernatants were plated in triplicate, in a serial dilution series (dilutions in carbonate bicarbonate buffer) on a high protein binding EIA/RIA 96 well plate (Costar) and incubated at 4° C. overnight. In addition to the supernatants from experimental samples, a mock-transfected and untransfected media control is also added to the assay samples. Moreover, a series of wells are used as negative controls for the assay in that no supernatant is added to these wells only carbonate bicarbonate buffer. After 3 washes with PBS, nonspecific binding sites are blocked with 3% BSA in PBS solution, for 2 hours at room temperature. […] The reaction is terminated by adding 4N H2SO4 and protein levels are measured using an ELISA reader (Molecular Diagnostics) at 450 nm. […]

WNV [2] = test: WNV release from infected 293 cells, ELISA with anti-E antibody; type: cell-based, West Nile virus; conditions: 4 MOI, 48 h post infection
Excerpt: FIG. 6 includes panels A and B. Both reduced CK2 activity and depletion of CK2 transcripts affects viral release. FIG. 6 panel A: Depletion of CK2 transcripts reduced viral replication. As described earlier, the cells were transfected with full-length infectious clone along with siRNA-CK2α and siRNA-CK2β molecules. Lane 1 depicts the amount of viral release from the plates that were not treated with any of siRNA molecules. […] FIG. 6 panel B: Effect of cell-permeable CK2-inhibitor on viral release. 293 cells were infected with infectious WNV samples, propagated from an infectious clone of WNV.
In the context of whole virus, we examined whether inhibition of cellular CK2 affects WN viral release. We generated high titer of viral sample from Vero cells transfected with full length infectious clone (Pierson et al 2005). We harvested culture fluid at regular intervals, determined viral titre by routine Plaque assays and used them for infection assays. […] Forty-eight hours post infection, viral release was monitored by both plaque assays as well as ELISAs measuring the presence of […] using monoclonal anti E antibody. FIG. 6B depicts the release of viral molecules from WNV-infected cells as measured by ELISA using anti-E antibody. […] While the inhibition of cellular CK2 activity results in the reduced viral load, it is presumable that depletion of CK2 transcripts also could cause similar effect. In order to test this, in the second approach, WNV release was evaluated under the conditions where expression of CK2 subunits was knocked out. Cellular CK2 was knocked out by using siRNA molecules that specifically target CK2α and CK2β transcripts. siRNA-CK2α and siRNA-CK2β molecules were used to deplete cellular transcripts of CK2. 293 cells were infected with infectious WNV followed by the treatment with either siRNA control molecules or siRNA-CK2α or siRNA-CK2β molecules. Release of WNV was monitored from these plates. […] We also observed severe impairment of capsid phosphorylation in the pulse-chase studies under the influence of siRNA molecules.

WNV [3] = test: WNV titers by plaque assay on Vero cells; type: cell-based, West Nile virus; conditions: DRB at different doses (FIG. 7B)
Description: The inhibited level of viral release indicates the siRNA-CK2 mediated effects are statistically significant.
Virus titration by plaque assay. Virus production was titered by plaque assays using Vero cells. For routine analysis, cells were seeded in 6-well (6×10^5 cells/well) or 12-well (3×10^5 cells/well) plates in -MEM with 10% FBS for 3 h at 37° C. Medium was removed, serial dilutions of virus supernatants in -MEM with 2% FBS were added (0.30 ml/well for 6-well plates and 0.15 ml/well for 12-well plates), and the cells were incubated for 2 h at 37° C. […] Virus concentrations are determined as PFU per milliliter.
In the context of whole virus, we examined whether inhibition of cellular CK2 affects WN viral release. […] We harvested culture fluid at regular intervals, determined viral titre by routine Plaque assays and used them for infection assays. […] Forty-eight hours post infection, viral release was monitored by both plaque assays as well as ELISAs measuring the presence of […] using monoclonal anti E antibody. FIG. 6B depicts the release of viral molecules from WNV-infected cells as measured by ELISA using anti-E antibody. […] In order to test this, in the second approach, WNV release was evaluated under the conditions where expression of CK2 subunits was knocked out. […] Release of WNV was monitored from these plates. […]

recombinant CK2 = target: T1, recombinant CK2 (Homo sapiens, UniProt P68400); test: In vitro CK2 kinase assay with recombinant WNV C as substrate; type: biochemical; conditions: 32P-ATP or 32P-GTP as donor; autoradiography
T1 construct: purchased Biomol Research Laboratories (Plymouth Meeting, Pa.)
T1 sequence (P68400 whole entry): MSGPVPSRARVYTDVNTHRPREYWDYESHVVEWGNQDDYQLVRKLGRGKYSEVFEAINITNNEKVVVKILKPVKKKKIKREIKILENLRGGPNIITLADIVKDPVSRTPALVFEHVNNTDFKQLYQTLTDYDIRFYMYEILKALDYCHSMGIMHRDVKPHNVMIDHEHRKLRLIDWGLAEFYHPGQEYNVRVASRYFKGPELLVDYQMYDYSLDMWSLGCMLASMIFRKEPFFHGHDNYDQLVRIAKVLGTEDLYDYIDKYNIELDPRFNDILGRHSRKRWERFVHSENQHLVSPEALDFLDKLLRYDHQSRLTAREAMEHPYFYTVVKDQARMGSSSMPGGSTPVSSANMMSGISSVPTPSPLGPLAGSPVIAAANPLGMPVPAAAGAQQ
T1 sequence (P67870 whole entry partner): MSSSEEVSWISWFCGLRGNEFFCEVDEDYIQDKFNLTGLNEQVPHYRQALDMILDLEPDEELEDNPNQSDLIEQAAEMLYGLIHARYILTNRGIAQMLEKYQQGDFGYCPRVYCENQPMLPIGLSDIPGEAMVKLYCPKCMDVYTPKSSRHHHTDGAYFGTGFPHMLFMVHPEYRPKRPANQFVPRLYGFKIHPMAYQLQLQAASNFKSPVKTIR
Description: In vitro protein kinase assays. In vitro phosphorylation assays were routinely done with the recombinant Cp proteins with the recombinant CK2 (Biomol, Pa.) in a 20 μl-reaction volume. Reaction mixtures (20 μL) contained 25 mM Hepes, pH 7.4, 2 mM MnCl2 or 5 mM MgCl2, 1.6 μCi of -^32P-GTP or […] (Amersham Pharmacia Biotech), and 0.5 to 1 μg of purified His-tagged WNV Cp as a substrate. Histone 1B (Calbiochem) protein was used as positive control. The phosphorylation reaction was started by the addition of ^32P-ATP or ^32P-GTP and the reaction was carried out for 30 min at 30 C. The kinase assays were arrested by the addition of 20 μl of SDS-sample buffer and the reaction mixtures were boiled for five minutes. Phosphorylated proteins were separated in SDS PAGE and proteins ere visualized by autoradiography.
Purified rC fractions from E. coli cells (M15[pREP4+pQE-WNV C]) were subjected to subsequent kinase assays. Using purified CK2 enzyme, in vitro assay was performed with ^32P-ATP as a phosphate donor to examine possible role of CK2 in the phosphorylation of WNV C. […] CK2 is unique among protein kinases in its ability to use both ATP and GTP as phosphoryl group donors. Another biochemical property of CK2 that makes it different from other kinases is its high sensitivity to inhibition by heparin.

Question: With `OC[C@H]1O[C@@H](n2cnc3cc(Cl)c(Cl)cc32)[C@H](O)[C@@H]1O` [DRB, 5,6-Dichloro-1-b-D-ribofuranosylbenzimidazole] as the molecule, how does the “in vivo phosphorylation of WNV C” value [1] read?
Answer: severely inhibited; also recorded: specifically blocks the phosphorylation of capsid; also recorded: adversely inhibited

Question: What about the “level of capsid in the culture fluid” value (capsid-containing VLPs) of the same molecule?
Answer: significantly reduced the level of capsid from the culture fluid

Question: And the viral release (WNV [2]; DRB 5 uM)?
Answer: significantly reduces viral release

Question: What about the viral release (WNV [2]; DRB 10 uM) of the same molecule?
Answer: reduced by almost one fold

Question: What about the viral release (WNV [2]; DRB 50 uM) of the same molecule?
Answer: completely effective at blocking viral release

Question: What about the “WNV replication and release into culture medium by plaque assay” value (WNV [3]) of the same molecule?
Answer: dose dependent

Question: Which “heparin concentration at which the ability of CK2 to phosphorylate C was adversely affected” value (recombinant CK2) does the source give for heparin here?
Answer: above 10 uM

Question: What about the “phosphorylation of C by CK2 in vitro” value (recombinant CK2) of the same molecule?
Answer: severely inhibited; also recorded: severely impaired in a dose dependent manner
